EP0532097A1, “Piperazinyl(sulfon)amide derivatives of camphor as oxytocin antagonists” (MERCK & CO. INC., priority 1991, dated 1993)

Molecular target: T1, uterine OT receptors (Rattus norvegicus, UniProt P70536)
T1 construct: using a crude membrane preparation of uteri; from tissue; host or cells: uterus of DES-treated rats, crude membrane preparation
T1 sequence (P70536 1-388): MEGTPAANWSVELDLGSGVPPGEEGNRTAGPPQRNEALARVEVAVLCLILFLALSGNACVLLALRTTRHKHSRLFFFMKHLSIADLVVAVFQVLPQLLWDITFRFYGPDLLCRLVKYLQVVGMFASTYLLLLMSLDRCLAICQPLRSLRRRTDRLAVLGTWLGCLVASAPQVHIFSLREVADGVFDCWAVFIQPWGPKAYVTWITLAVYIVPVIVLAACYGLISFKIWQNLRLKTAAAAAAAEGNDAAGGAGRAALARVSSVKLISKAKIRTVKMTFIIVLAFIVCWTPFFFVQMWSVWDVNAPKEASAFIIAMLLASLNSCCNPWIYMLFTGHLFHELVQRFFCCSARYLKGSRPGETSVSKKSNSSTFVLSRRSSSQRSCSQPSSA
Test: [³H]Oxytocin radioligand binding assay, crude membrane preparation of uteri from DES-treated rats
Settings: at 100 nM
Experimental: The high affinity binding of [³H] Oxytocin (OT)([tyrosyl, 3,5-[³H]OT; 30-60 Ci/mmol; New England Nuclear. Boston, MA) to uterine OT receptors was based on an assay (Fuchs, A-R; Fuchs, F; Soloff, MS. 1985 J. Clin. Endocrinol. Metab. 60:37) using a crude membrane preparation of uteri taken from diethylstilbestrol dipropionate (DES)-treated (0.3 mg/kg, ip; 18-24) rats. Competition studies were conducted at equilibrium (60 minutes; 22°C) using 1 nM[³H]OT in the following assay buffer: 50 mM Tris-HCl, 5 mM MgCl₂, and 0.1% BSA, pH 7.4. Nonspecific binding (10% of the total binding) was determined using 1 mM unlabeled OT and the binding reaction was terminated by filtration through glass fiber filters using a cell harvester (model 7019, Skatron, Inc., Sterling, VA). IC₅₀ (the concentration of tested compound that inhibits 50% of OT) was reported, unless otherwise noted.

inhibition at 100 nM | Compound
37% inhibition at 100 nM | 1-((7,7-Dimethyl-2-exo-hydroxy-2-endo-2-(1-(4-pyridinyl)methylamino)-propyl-bicyclo(2.2.1)heptan-1-yl)methanesulfonyl)-4-(2-methylphenyl)-piperazine [Example 27]

Same assay, conditions: competition with 1 nM [³H]OT, 60 minutes, 22°C; concentration that inhibits 50% of OT; read-out: IC50

IC50 | Compound
6.3 nM | Cc1ccccc1N1CCN(S(=O)(=O)C[C@]23CC[C@H](C[C@@H]2N(C)C(=O)[C@@H](N)CCS(C)(=O)=O)C3(C)C)CC1 [Example 41, 1-((7,7-dimethyl-2-endo-methyl(2S-amino-4-(methylsulfonyl)butanoyl)amino-bicyclo(2.2.1)heptan-1-yl)methanesulfonyl)-4-(2-methylphenyl)-piperazine]
9.2 nM | Cc1ccccc1N1CCN(S(=O)(=O)C[C@]23CC[C@H](C[C@@H]2N(C)C(=O)[C@H](CCS(C)(=O)=O)N(C)C)C3(C)C)CC1 [Example 42, 1-((7,7-Dimethyl-2-endo-methyl(2s-dimethylamino-4-(methylsulfonyl)-butanoyl)amino-bicyclo(2.2.1)heptan-1-yl)methanesulfonyl)-4-(2-methylphenyl)-piperazine]
7.7 nM | Cc1ccccc1N1CCN(S(=O)(=O)C[C@]23CC[C@H](C[C@@H]2NC(=O)[C@@H](N)CCS(C)(=O)=O)C3(C)C)CC1 [Example 36, 1-((7,7-Dimethyl-2-endo-(2S-amino-4-(methylsulfonyl)-butyramido)-bicyclo(2.2.1)heptan-1-yl)methanesulfonyl)-4-(2-methylphenyl)piperazine]
5.4 nM | Cc1ccccc1N1CCN(S(=O)(=O)C[C@]23CC[C@H](C[C@@H]2NC(=O)[C@H](CCS(C)(=O)=O)N(C)C)C3(C)C)CC1 [Example 38, 1-((7,7-Dimethyl-2-endo-(2s-(dimethylamino)-4-(methylsulfonyl)butyramido)-bicyclo(2.2.1)heptan-1-yl)methanesulfonyl)-4-(2-methyl-phenyl)piperazine]
460 nM | Cc1ccccc1N1CCN(S(=O)(=O)CC23CCC(CC2=NO)C3(C)C)CC1 (stereo not shown) [Example 33, 1-((7,7-Dimethyl-2-oximino-bicyclo(2.2.1)heptan-1-yl)methanesulfonyl)-4-(2-methylphenyl)-piperazine]

The remaining lines, values behind:

Compound | IC50
Cc1ccccc1N1CCN(S(=O)(=O)C[C@]23CC[C@H](C[C@@H]2C(=O)O)C3(C)C)CC1 [Example 24, 1-((7,7-Dimethyl-2-endo-carboxy-bicyclo(2.2.1)heptan-1-yl)methane-sulfonyl)-4-(2-methylphenyl)piperazine] | 260 nM
Two isomers of 1-((7,7-dimethyl-2-exo-hydroxy-2-endo-2-(1-(3-methoxycarbonyl)-2-pyrrolidinon-1-yl)propylbicyclo-(2.2.1)heptan-1-yl)methanesulfonyl)-4-(2-methylphenyl)piperazine [Example 26] | 35 nM
COC(=O)[C@H]1C[C@H]2CC[C@]1(CS(=O)(=O)N1CCN(c3ccccc3C)CC1)C2(C)C [Example 23, 1-((7,7-Dimethyl-2-endo-methoxycarbonyl-bicyclo-(2.2.1)heptan-1-yl)methanesulfonyl)-4-(2-methyl-phenyl)piperazine] | 120 nM

Same assay, conditions: read-out: inhibition at 100 nM

inhibition at 0.1 µM | Compound
66% | CCOC(=O)CN1CCCC(C(=O)NCC(C)C2(O)CC3CCC2(CS(=O)(=O)N2CCN(c4ccccc4C)CC2)C3(C)C)C1 (stereo not drawn) [Example 50, 1-((7,7-Dimethyl-2-exo-hydroxy-2-endo-2-(1-(3-(1-ethoxycarbonyl-methyl)piperidinylcar-bonyl)amino)propyl-bicyclo(2.2.1)heptan-1-yl)methanesulfonyl)-4-(2-methylphenyl)piperazine]
66% | CCOC(=O)CN1CCC(C(=O)NCC(C)C2(O)CC3CCC2(CS(=O)(=O)N2CCN(c4ccccc4C)CC2)C3(C)C)CC1 (stereo not drawn) [Example 57, 1-((7,7-Dimethyl-2-exo-hydroxy-2-endo-2-(1-(3-(1-ethoxycarbonyl-methyl)piperidinylcar-bonyl)amino)propyl-bicyclo(2.2.1)heptan-1-yl)methanesulfonyl)-4-(2-methylphenyl)piperazine]
66% | CCOC(=O)CN1CCCC1C(=O)NCC(C)C1(O)CC2CCC1(CS(=O)(=O)N1CCN(c3ccccc3C)CC1)C2(C)C (stereo not drawn) [Example 52, 1-((7,7-Dimethyl-2-exo-hydroxy-2-endo-2-(1-(l-n-(ethoxycarboxymethyl)-prolyl)amino)propyl-bicyclo-(2.2.1)heptan-1-yl)methanesulfonyl)-4-(2-methylphenyl)piperazine]

Continued, compound first:

Compound | inhibition at 0.1 µM
Cc1ccccc1N1CCN(S(=O)(=O)CC23CCC(CC2=CCNC(=O)Cc2cnc[nH]2)C3(C)C)CC1 (stereo not shown) [Example 17, 1-((7,7-dimethyl-2-(2-(4(5)-imidazolylacetyl)amino)-ethylidine-bicyclo(2.2.1)heptan-1-yl)methane-sulfonyl)-4-(2-methylphenyl)piperazine] | 36%
Cc1ccccc1N1CCN(S(=O)(=O)C[C@]23CC[C@H](C[C@@H]2C(=O)NCCc2cnc[nH]2)C3(C)C)CC1 [Example 25, 1-((7,7-Dimethyl-2-endo-(4-imidazolyl)ethylamino-carbonyl-bicyclo-(2.2.1)heptan-1-yl)methanesulfonyl)-4-(2-methylphenyl)piperazine] | 34%
COC(=O)CCNCC(C)C1(O)CC2CCC1(CS(=O)(=O)N1CCN(c3ccccc3C)CC1)C2(C)C (stereo not drawn) [Example 10, 1-((7,7-Dimethyl-2-exo-hydroxy-2-endo-2-(1-(2-methoxycarbonylethyl)-amino)propyl-bicyclo(2.2.1)heptan-1-yl)methanesulfonyl)-4-(2-methylphenyl)piperazine] | 48%

Same assay, conditions: read-out: inhibition at 1,000 nM

inhibition at 1 µM | Compound
54% | Cc1ccccc1N1CCN(S(=O)(=O)C[C@]23CC[C@H](C[C@@H]2NC(=O)OCc2ccccc2)C3(C)C)CC1 [Example 39, 1-((7,7-Dimethyl-2-endo-benzyloxycarbonylamino-bicyclo(2.2.1)heptan-1-yl)methanesulfonyl)-4-(2-methyl-phenyl)piperazine]
37% | Cc1ccccc1N1CCN(S(=O)(=O)C[C@]23CC[C@H](C[C@H]2O)C3(C)C)C(C)C1 (stereo partly drawn) [Example 32, 1-((7,7-Dimethyl-2-exo-hydroxy-bicyclo(2.2.1)heptan-1-yl)methane-sulfonyl)-4-(2-methylphenyl)-2-methyl-piperazine]

The remaining lines, values behind:

Compound | inhibition at 1 µM
COC(=O)C1=CC2CCC1(CS(=O)(=O)N1CCN(c3ccccc3C)CC1)C2(C)C (stereo not shown) [Example 20, 1-((7,7-Dimethyl-2-methoxycarbonyl-bicyclo(2.2.1)hept-2-en-1-yl)methanesulfonyl)-4-(2-methylphenyl)-piperazine] | 72%
Cc1ccccc1N1CCN(S(=O)(=O)C[C@]23CC[C@H](C[C@]2(O)CNCC(C)C)C3(C)C)CC1 [Example 19, 1-((7,7-Dimethyl-2-exo-hydroxy-2-endo-isobutylamino-methyl-bicyclo(2.2.1)heptan-1-yl)methanesulfonyl)-4-(2-methylphenyl)piperazine] | 31%

Same assay, conditions: read-out: inhibition at 10,000 nM

inhibition at 10 µM | Compound
5% | Cc1ccccc1N1CCN(S(=O)(=O)CC23CCC(CC2=O)C3(C)C)C(C)C1=O (stereo not shown) [Example 31, 1-((7,7-Dimethyl-2-oxo-bicyclo(2.2.1)heptan-1-yl)methanesulfonyl)-4-(2-methylphenyl)-2-methyl-3-piperazinone]
16% | Cc1ccccc1N1CCN(S(=O)(=O)CC23CCC(CC2=O)C3(C)C)CC1=O (stereo not shown) [Example 30, 1-((7,7-Dimethyl-2-oxo-bicyclo(2.2.1)heptan-1-yl)methanesulfonyl)-4-(2-methylphenyl)-3-piperazinone]

Same assay, conditions: saturation binding assay; uterus

Kd | Compound
0.7 nM | [³H]OT [reference compound]
